Data taken from patent publication US20230183179A1, “NOVEL CELL METABOLISM MODULATING COMPOUNDS AND USES THEREOF” (CRESCENTA BIOSCIENCES, priority 2020, published 2023).

Key:
[1] = test system: differentiated 3T3-L1 mouse adipocyte cells; assay: Adipocyte glucose consumption in differentiated 3T3-L1 cells (colorimetric glucose assay of the medium); assay type: cell-based; conditions: 3T3-L1, 24 h, compound 10 μM, loss of glucose from culture medium, mean fold change (compound/DMSO)
Description: Activity of compounds on adipocyte glucose consumption was tested in differentiated 3T3-L1 mouse adipocyte cells. 3T3-L1 preadipocytes (ATCC) were routinely cultured in a growth medium composed of DMEM high-glucose (Sigma), 10% FBS (Gibco), 10 U/ml penicillin and 10 μg/ml streptomycin (P/S; Gibco). To induce adipogenic differentiation, a confluent layer of 3T3-L1 cells were incubated with the growth medium containing 2 μM rosiglitazone, 1 μM dexamethasone, 500 μM IBMX, and 1 μg/ml insulin (Sigma). Forty-eight (48) hours later (on day 2) and on days 4 and 6, medium of the cells was replaced with fresh medium containing 1 μg/ml insulin. On days 8 and 10, the medium was refreshed with regular growth medium and addition of insulin was omitted. On day 11, medium of the cells were 10 replaced with fresh medium containing either the indicated compounds (10 μM) or the vehicle in which the compounds were dissolved (DMSO). The final concentration of DMSO was 0.1% (v/v). Growth medium containing 0.1% DMSO was incubated in culture wells containing no cells and used as control. 24 hours later, medium was harvested and subjected to centrifugation at 10,000 g for 5 min. Glucose concentration in the supernatants was determined using a 15 colorimetric assay (Glucose Assay Kit I, Eton Biosciences). Glucose consumption in compound and vehicle treated cells was measured as loss of glucose from the culture medium and represented as mean fold change (compound/DMSO)±standard deviation (SD).

[2] = target: T1, His6 tagged human recombinant FABP4 (Homo sapiens, UniProt P15090); assay: FABP4 TR-FRET assay: displacement of fluorescent fatty acid BODIPY FL C12; conditions: inhibition of BODIPY FL C12 binding to His6-FABP4; 1.2 μL of 1.085 mM compound in DMSO per well; triplicates, mean percent inhibition
T1 construct: purchased Cayman Chemicals 10009549
Source text: Activity of compounds with FABP4 was profiled using a Terbium (Tb) based time resolved fluorescence energy transfer (TR-FRET) assay. The assay measures the compound mediated displacement of the fluorescent fatty acid BODIPY FL C12 (Thermo Fisher; catalog number D3822) from His6 tagged human recombinant FABP4 (His6-FABP4; Cayman Chemicals, catalog number 10009549) via recording the energy transfer from TB donor molecule on anti-His6-tag antibody to acceptor BODIPY moiety. Briefly, compounds and BODIPY FL C12 were prepared at a concentration of 1.085 mM and 4.2 μM, respectively, in DMSO. 1.2 μL of each compound or DMSO (vehicle control) and 1.2 μL of BODIPY FL C12 were added into the wells of a 384-well black polypropylene plate. His6-FABP4 and Tb anti-His6 antibody were prepared in the assay buffer (25 mM Tris/HCl, pH 7.4, 0.4 mg/ml γ-globulins, 0.010% NP-40, 1 mM DTT) at a concentration of 83 nM and 49.6 nM, respectively. The protein and antibody solutions were then mixed at a ratio of 34:7 (v/v) and incubated on ice for 30 minutes. The assay was initiated by adding 41 μL of the resulting protein/antibody solution into the wells containing the compounds and BODIPY FL C12. The plate was centrifuged and incubated at room temperature for 10 min. The TR-FRET signals were recorded using an EnVision Multilabel plate reader (PerkinElmer; TB excitation 320 nm, BODIPY FL C12 emission 520 nm; TB emission 615 nm). Relative fluorescence ratio (520 nm*10,000/615 nm) were used to calculate the compound mediated inhibition of BODIPY C12 FL fatty acid binding to FABP4. The compounds were tested in triplicates and the results were represented as mean percent inhibition (compound*100/DMSO)±standard deviation (SD). Glucose consumption and FABP4 inhibition is shown below in Table 3 below. The compounds showing no inhibition of activity in the TR-FRET assay are marked as N.A. N.D. stands for “not determined”.

T1 sequence (P15090 whole entry): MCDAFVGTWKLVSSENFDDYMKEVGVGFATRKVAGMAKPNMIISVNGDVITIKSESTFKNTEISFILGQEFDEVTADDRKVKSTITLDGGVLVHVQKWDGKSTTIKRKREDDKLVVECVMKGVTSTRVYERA

SMILES	fold induction at 10 µM [1]	inhibition at 1085 µM (stock) [2] [%]
COc1ccc2nc(N(C)CC(=O)O)cc(-c3ccccc3)c2c1 [2-[(6-methoxy-4-phenylquinolin-2-yl)(methyl)amino]acetic acid]	1.12	101
CCCCCc1ccc2nc(OCC(=O)O)cc(-c3ccccc3)c2c1 [2-[(6-pentyl-4-phenylquinolin-2-yl)oxy]acetic acid]	1.05	55.1
CN(CC(=O)O)c1cc(-c2ccccc2)c2ccc(Br)cc2n1 [2-[(7-bromo-4-phenylquinolin-2-yl)(methyl)amino]acetic acid]	1.19	84.5
CCCCCCc1ccc2c(-c3ccccc3)cc(N(C)CC(=O)O)nc2c1 [2-[(7-hexyl-4-phenylquinolin-2-yl)(methyl)amino]acetic acid]	1.26	25.3
CCCc1ccc2nc(N(C)CC(=O)O)cc(-c3ccccc3)c2c1 [2-[methyl(4-phenyl-6-propylquinolin-2-yl)amino]acetic acid]	1.36	104
CCCCCCCCc1ccc2nc(N(C)CC(=O)O)cc(-c3ccccc3)c2c1 [2-[methyl(6-octyl-4-phenylquinolin-2-yl)amino]acetic acid]	1.52	99.3
CCCCC(=O)Nc1ccc2nc(N(C)CC(=O)O)cc(-c3ccccc3)c2c1 [2-[methyl(6-pentanamido-4-phenylquinolin-2-yl)amino]acetic acid]	0.98	28.7
CCCCCc1ccc2nc(N(C)CC(=O)O)cc(-c3ccccc3)c2c1 [2-[methyl(6-pentyl-4-phenylquinolin-2-yl)amino]acetic acid]	1.32	90.5
CN(CCc1ccc2nc(N(C)CC(=O)O)cc(-c3ccccc3)c2c1)c1ccccc1 [2-[methyl(6-{2-[methyl(phenyl)amino]ethyl}-4-phenylquinolin-2-yl)amino]acetic acid]	1.17	55.9
CN(CC(=O)O)c1cc(-c2ccccc2)c2cc(CCc3ccc4c(c3)CCCN4)ccc2n1 [2-[methyl({4-phenyl-6-[2-(1,2,3,4-tetrahydroquinolin-6-yl)ethyl]quinolin-2-yl})amino]acetic acid]	1.31	44.7
CN(CC(=O)O)c1cc(-c2ccccc2)c2cc(CCC3CNc4ccccc4N3)ccc2n1 (stereo not shown) [2-[methyl({4-phenyl-6-[2-(1,2,3,4-tetrahydroquinoxalin-2-yl)ethyl]quinolin-2-yl})amino]acetic acid]	1.26	14.9
CN(CC(=O)O)c1cc(-c2ccccc2)c2cc(CCN3CCCCC3)ccc2n1 [2-[methyl({4-phenyl-6-[2-(piperidin-1-yl)ethyl]quinolin-2-yl})amino]acetic acid]	0.96	< 0
CN(CC(=O)O)c1cc(-c2ccccc2)c2cc(CCc3cnccn3)ccc2n1 [2-[methyl({4-phenyl-6-[2-(pyrazin-2-yl)ethyl]quinolin-2-yl})amino]acetic acid]	1.28	4.98
CN(CC(=O)O)c1cc(-c2ccccc2)c2cc(CCc3cccnc3)ccc2n1 [2-[methyl({4-phenyl-6-[2-(pyridin-3-yl)ethyl]quinolin-2-yl})amino]acetic acid]	1.41	32
CN(CC(=O)O)c1cc(-c2ccccc2)c2cc(CCc3ccncc3)ccc2n1 [2-[methyl({4-phenyl-6-[2-(pyridin-4-yl)ethyl]quinolin-2-yl})amino]acetic acid]	1.26	< 0
CN(CC(=O)O)c1cc(-c2ccccc2)c2cc(CCc3ncccn3)ccc2n1 [2-[methyl({4-phenyl-6-[2-(pyrimidin-2-yl)ethyl]quinolin-2-yl})amino]acetic acid]	1.35	< 0
CN(CC(=O)O)c1cc(-c2ccccc2)c2cc(CCc3cncnc3)ccc2n1 [2-[methyl({4-phenyl-6-[2-(pyrimidin-5-yl)ethyl]quinolin-2-yl})amino]acetic acid]	1.22	13.2
CN(CC(=O)O)c1cc(-c2ccccc2)c2cc(CCc3ccc4ncccc4c3)ccc2n1 [2-[methyl({4-phenyl-6-[2-(quinolin-6-yl)ethyl]quinolin-2-yl})amino]acetic acid]	1.4	34.7
CN(CC(=O)O)c1cc(-c2ccccc2)c2cc(CCc3ccc4cccnc4c3)ccc2n1 [2-[methyl({4-phenyl-6-[2-(quinolin-7-yl)ethyl]quinolin-2-yl})amino]acetic acid]	1.25	43.5
CN(CC(=O)O)c1cc(-c2ccccc2)c2cc(CCc3cnc4ccccc4n3)ccc2n1 [2-[methyl({4-phenyl-6-[2-(quinoxalin-2-yl)ethyl]quinolin-2-yl})amino]acetic acid]	1.28	33.6
CN(CC(=O)O)c1cc(-c2ccccc2)c2cc(CCc3ccc4nccnc4c3)ccc2n1 [2-[methyl({4-phenyl-6-[2-(quinoxalin-6-yl)ethyl]quinolin-2-yl})amino]acetic acid]	1.33	33.6
Cc1ccccc1CCc1ccc2nc(N(C)CC(=O)O)cc(-c3ccccc3)c2c1 [2-[methyl({6-[2-(2-methylphenyl)ethyl]-4-phenylquinolin-2-yl})amino]acetic acid]	1.4	38.2
Cc1cccc(CCc2ccc3nc(N(C)CC(=O)O)cc(-c4ccccc4)c3c2)c1 [2-[methyl({6-[2-(3-methylphenyl)ethyl]-4-phenylquinolin-2-yl})amino]acetic acid]	1.53	50.2
CN(CC(=O)O)c1cc(-c2ccccc2)c2cc(CCN3CCOCC3)ccc2n1 [2-[methyl({6-[2-(morpholin-4-yl)ethyl]-4-phenylquinolin-2-yl})amino]acetic acid]	1.13	6.78
CN(CC(=O)O)c1cc(-c2ccncc2)c2cc(CCc3ccccn3)ccc2n1 [2-[methyl({6-[2-(pyridin-2-yl)ethyl]-4-(pyridin-4-yl)quinolin-2-yl})amino]acetic acid]	1.06	16.1
CN(CC(=O)O)c1cc(-c2ccncc2)c2cc(CCc3cccnc3)ccc2n1 [2-[methyl({6-[2-(pyridin-3-yl)ethyl]-4-(pyridin-4-yl)quinolin-2-yl})amino]acetic acid]	1.06	24.6
CN(CC(=O)NCC(=O)O)c1cc(-c2ccccc2)c2cc(Cl)ccc2n1 [2-{2-[(6-chloro-4-phenylquinolin-2-yl)(methyl)amino]acetamido}acetic acid]	1.08	103
CN(CC(=O)O)c1cc(-c2ccc(F)cc2)c2cc(-c3ccc(F)cc3)ccc2n1 [2-{[4,6-bis(4-fluorophenyl)quinolin-2-yl](methyl)amino}acetic acid]	1.28	42
CCCCCCc1ccc2nc(N(C)CC(=O)O)cc(N3CCC(F)(F)C3)c2c1 [2-{[4-(3,3-difluoropyrrolidin-1-yl)-6-hexylquinolin-2-yl](methyl)amino}acetic acid]	1.28	50.5
